Measurements reported in patent US20220089575A1, “FARNESOID X RECEPTOR AGONISTS AND USES THEREOF” (Metacrine, Inc., priority 2017, published 2022).

Target: T1, hFXR (Homo sapiens, UniProt Q96RI1)
T1 construct: expressed in transfected cells; host or cells: CV-1 cells
T1 sequence (Q96RI1 1-486): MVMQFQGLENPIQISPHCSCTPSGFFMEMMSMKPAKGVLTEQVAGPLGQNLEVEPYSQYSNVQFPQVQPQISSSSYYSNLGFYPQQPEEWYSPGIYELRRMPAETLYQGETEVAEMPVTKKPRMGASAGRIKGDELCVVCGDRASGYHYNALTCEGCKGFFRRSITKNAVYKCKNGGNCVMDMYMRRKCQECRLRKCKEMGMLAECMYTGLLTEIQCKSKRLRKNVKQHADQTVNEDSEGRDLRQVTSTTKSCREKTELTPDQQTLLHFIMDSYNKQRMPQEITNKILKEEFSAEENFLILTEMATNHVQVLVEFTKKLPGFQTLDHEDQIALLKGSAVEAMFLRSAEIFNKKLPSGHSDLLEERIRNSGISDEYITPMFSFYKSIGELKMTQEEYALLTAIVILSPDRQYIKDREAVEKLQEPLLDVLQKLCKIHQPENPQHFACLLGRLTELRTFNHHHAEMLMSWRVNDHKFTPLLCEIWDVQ
T1 sequence (P19793 1-462 partner): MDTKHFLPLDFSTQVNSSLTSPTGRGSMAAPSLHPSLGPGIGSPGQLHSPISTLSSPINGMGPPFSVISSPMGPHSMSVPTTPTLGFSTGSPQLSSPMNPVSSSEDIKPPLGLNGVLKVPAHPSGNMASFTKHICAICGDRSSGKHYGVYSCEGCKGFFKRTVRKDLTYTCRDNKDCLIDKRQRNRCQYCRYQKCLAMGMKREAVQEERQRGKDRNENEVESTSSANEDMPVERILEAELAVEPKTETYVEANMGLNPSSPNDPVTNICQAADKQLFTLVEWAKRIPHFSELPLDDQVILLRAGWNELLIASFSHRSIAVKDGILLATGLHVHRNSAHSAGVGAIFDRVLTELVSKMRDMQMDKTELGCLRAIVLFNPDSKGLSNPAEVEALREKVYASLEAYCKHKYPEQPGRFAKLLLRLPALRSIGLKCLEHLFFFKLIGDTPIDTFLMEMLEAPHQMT
Assay: In Vitro FXR Assay (TK): TK-ECRE-luc reporter in transfected CV-1 cells
Type: cell-based
Details: 18 hrs, luminescence, maximum efficacy of <25% of the Fexarmine control classified as '+'
Summary of the method: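 Luciferase luminescence read-out from lysed CV-1 cells transiently co-expressing hFXR and hRXR with a TK-ECRE-luc reporter (pCMX-YFP co-transfected). Compound exposure lasted 18 h at 37 °C, 5% CO2, in medium containing charcoal super-stripped serum.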

EC50, ≤ 250 nM:
COc1ccc([C@H]2CC[C@H](CN(c3cc(-c4cnc(C5CC5)s4)ccn3)C(=O)[C@H]3CC[C@H](OC(=O)N4CC(O)C4)CC3)CC2)nc1C#N [Compound 7.10, trans-4-(((trans-4-(6-Cyano-5-methoxypyridin-2-yl)cyclohexyl)methyl)(4-(2-cyclopropylthiazol-5-yl)pyridin-2-yl)carbamoyl)cyclohexyl 3-hydroxyazetidine-1-carboxylate]
COc1ccc([C@H]2CC[C@H](CN(c3cccc(-c4cnc(C5CC5)s4)c3)C(=O)[C@H]3CC[C@H](OC(=O)N4CC(O)C4)CC3)CC2)nc1C [Compound 7.11, trans-4-((3-(2-Cyclopropylthiazol-5-yl)phenyl)((trans-4-(5-methoxy-6-methylpyridin-2-yl)cyclohexyl)methyl)carbamoyl)cyclohexyl 3-hydroxyazetidine-1-carboxylate]
COc1ccc(C23CCC(CN(c4cccc(-c5cnn(C6CC6)c5)c4)C(=O)[C@H]4CC[C@H](OC(=O)N5CC(O)C5)CC4)(CC2)CC3)cc1C [Compound 7.12, 4-((3-(1-Cyclopropyl-1H-pyrazol-4-yl)phenyl)((4-(4-methoxy-3-methylphenyl)bicyclo[2.2.2]octan-1-yl)methyl)carbamoyl)cyclohexyl trans-3-hydroxyazetidine-1-carboxylate]
CN(C)c1ccc([C@H]2CC[C@H](CN(c3cccc(-c4cnn(C5CC5)c4)c3)C(=O)[C@H]3CC[C@H](OC(=O)N4CC(O)C4)CC3)CC2)cn1 [Compound 7.13, trans-4-((3-(1-Cyclopropyl-1H-pyrazol-4-yl)phenyl)((trans-4-(6-(dimethylamino)pyridin-3-yl)cyclohexyl)methyl)carbamoyl) cyclohexyl 3-hydroxyazetidine-1-carboxylate]
COc1ccc([C@H]2CC[C@H](CN(c3cccc(-c4cnn(C(C)C)c4)c3)C(=O)[C@H]3CC[C@H](OC(=O)N4CC(O)C4)CC3)CC2)cc1C [Compound 7.14, trans-4-((3-(1-Isopropyl-1H-pyrazol-4-yl)phenyl)((trans-4-(4-methoxy-3-methylphenyl)cyclohexyl)methyl)carbamoyl)cyclohexyl 3-hydroxyazetidine-1-carboxylate]
COc1ccc([C@H]2CC[C@H](CN(c3cccc(-c4cnn(C(C)C)c4)c3)C(=O)[C@H]3CC[C@H](OC(=O)N4CC(O)C4)CC3)CC2)nc1C [Compound 7.15, trans-4-((3-(1-Isopropyl-1H-pyrazol-4-yl)phenyl)((trans-4-(5-methoxy-6-methylpyridin-2-yl)cyclohexyl)methyl)carbamoyl)cyclohexyl 3-hydroxyazetidine-1-carboxylate]
COc1ccc([C@H]2CC[C@H](CN(c3cc(-c4cnn(C(C)C)c4)ccn3)C(=O)[C@H]3CC[C@H](OC(=O)N4CC(O)C4)CC3)CC2)cc1C [Compound 7.16, trans-4-((4-(1-Isopropyl-1H-pyrazol-4-yl)pyridin-2-yl)((trans-4-(4-methoxy-3-methylphenyl)cyclohexyl)methyl)carbamoyl)cyclohexyl 3-hydroxyazetidine-1-carboxylate]
COC(=O)CNC(=O)O[C@H]1CC[C@H](C(=O)N(C[C@H]2CC[C@H](c3ccc(OC)c(C)c3)CC2)c2cccc(-c3cnn(C4CC4)c3)c2)CC1 [Compound 7.17, Methyl 2-((((trans-4-((3-(1-cyclopropyl-1H-pyrazol-4-yl)phenyl)((trans-4-(4-methoxy-3-methylphenyl)cyclohexyl)methyl)carbamoyl)cyclohexyl)oxy)carbonyl)amino)acetate]
COc1ccc([C@H]2CC[C@H](CN(c3cccc(-c4cnn(C5CC5)c4)c3)C(=O)[C@H]3CC[C@H](OC(=O)NCC(=O)O)CC3)CC2)cc1C [Compound 7.18, 2-((((trans-4-((3-(1-Cyclopropyl-1H-pyrazol-4-yl)phenyl)((trans-4-(4-methoxy-3-methylphenyl)cyclohexyl)methyl)carbamoyl)cyclohexyl)oxy)carbonyl)amino)acetic acid]
COc1ccc([C@H]2CC[C@H](CN(c3cccc(-c4cnn(C5CC5)c4)c3)C(=O)[C@H]3CC[C@H](OC(=O)N4CC(O)C4)CC3)CC2)cc1C#N [Compound 7.19, trans-4-(((trans-4-(3-Cyano-4-methoxyphenyl)cyclohexyl)methyl)(3-(1-cyclopropyl-1H-pyrazol-4-yl)phenyl)carbamoyl)cyclohexyl 3-hydroxyazetidine-1-carboxylate]
COc1ccc([C@H]2CC[C@H](CN(c3cccc(-c4cnn(C(C)C)c4)c3)C(=O)[C@H]3CC[C@H](OC(=O)N4CC(O)C4)CC3)CC2)cc1C#N [Compound 7.20, trans-4-(((trans-4-(3-Cyano-4-methoxyphenyl)cyclohexyl)methyl)(3-(1-isopropyl-1H-pyrazol-4-yl)phenyl)carbamoyl)cyclohexyl 3-hydroxyazetidine-1-carboxylate]
COc1ccc([C@H]2CC[C@H](CN(c3cc(-c4cnn(C5CC5)c4)ccn3)C(=O)[C@H]3CC[C@H](OC(=O)N4CC(O)C4)CC3)CC2)cc1C#N [Compound 7.21, trans-4-(((trans-4-(3-Cyano-4-methoxyphenyl)cyclohexyl)methyl)(4-(1-cyclopropyl-1H-pyrazol-4-yl)pyridin-2-yl)carbamoyl)cyclohexyl 3-hydroxyazetidine-1-carboxylate]
COc1ccc([C@H]2CC[C@H](CN(c3cc(-c4cnn(C(C)C)c4)ccn3)C(=O)[C@H]3CC[C@H](OC(=O)N4CC(O)C4)CC3)CC2)cc1C#N [Compound 7.22, trans-4-(((trans-4-(3-Cyano-4-methoxyphenyl)cyclohexyl)methyl)(4-(1-isopropyl-1H-pyrazol-4-yl)pyridin-2-yl)carbamoyl)cyclohexyl 3-hydroxyazetidine-1-carboxylate]
COc1ncc([C@H]2CC[C@H](CN(c3cccc(-c4cnn(C5CC5)c4)c3)C(=O)[C@H]3CC[C@H](OC(=O)N4CC(O)C4)CC3)CC2)cc1Cl [Compound 7.23, trans-4-(((trans-4-(5-Chloro-6-methoxypyridin-3-yl)cyclohexyl)methyl)(3-(1-cyclopropyl-1H-pyrazol-4-yl)phenyl)carbamoyl) cyclohexyl 3-hydroxyazetidine-1-carboxylate]
COc1ccc([C@H]2CC[C@H](CN(c3cc(-c4cnn(C5CC5)c4)ccn3)C(=O)[C@H]3CC[C@H](OC(=O)N4CC(O)C4)CC3)CC2)nc1C [Compound 7.24, trans-4-((4-(1-Cyclopropyl-1H-pyrazol-4-yl)pyridin-2-yl)((trans-4-(5-methoxy-6-methylpyridin-2-yl)cyclohexyl)methyl)carbamoyl)cyclohexyl 3-hydroxyazetidine-1-carboxylate]
COc1ncc([C@H]2CC[C@H](CN(c3cccc(-c4cnn(C5CC5)c4)c3)C(=O)[C@H]3CC[C@H](OC(=O)N4CC(O)C4)CC3)CC2)cc1C [Compound 7.25, trans-4-((3-(1-Cyclopropyl-1H-pyrazol-4-yl)phenyl)((trans-4-(6-methoxy-5-methylpyridin-3-yl)cyclohexyl)methyl)carbamoyl)cyclohexyl 3-hydroxyazetidine-1-carboxylate]
